Patent US6689343B1, “Hemostatic and acid etch compositions containing sucralose” (Ultradent Products, Inc., priority 2002, dated 2004)

Assay: Storage stability of sucralose in the acidic composition
Format: physicochemical
Conditions: highly acidic in water

SMILES: OC[C@H]1O[C@H](O[C@]2(CCl)O[C@H](CCl)[C@@H](O)[C@@H]2O)[C@H](O)[C@@H](O)[C@H]1Cl [sucralose, 1,6-dichloro-1,6-dideoxy-β-D-fructo-furanosyl-4-chloro-4-deoxy-α-D-galactopyranoside]
- stability in the presence of hemostatic or dental etching agents: stable
